# Measured values from patent US20220330549A1, “USE OF N-BENZYLBENZAMIDE-BASED COMPOUND AS HERBICIDE” (Northwest A&F University, priority 2020, published 2022).
# Legend:
# Assay type in all cases: in vivo
# Barnyard grass [1] = assay: Herbicidal activity test for indoor pre-emergence soil treatment; parameters: key: level 1-9; higher = more weed remaining vs blank control; details: 150 g a.i./ha, visual inspection 21 days after treatment
# How it was run: (§1)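 Pre-emergence test following NY/T 1155.3-2006: weed seeds were sown in moistened neutral sandy loam (≤2% organic matter) and covered with 0.5–2.0 cm of soil. After 24 h, the soil was sprayed with a 10% EC diluted in water at 150 g(a.i.)/ha. Damage was scored visually on a 1–9 scale at 21 days.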
# Piemarker [2] = assay: as above; parameters: key: level 1-9; higher = more weed remaining vs blank control; details: 150 g a.i./ha, visual inspection 21 days after treatment
# How it was run: as §1
# green bristlegrass [3] = assay: as above; parameters: key: level 1-9; higher = more weed remaining vs blank control; details: 150 g a.i./ha, visual inspection 21 days after treatment
# How it was run: as §1
# Amaranthus retroflexus [4] = assay: as above; parameters: key: 1-9 levels; higher = more weed remaining vs blank control; details: 150 g a.i./ha, visual inspection 21 days after treatment
# How it was run: as §1
# Digitaria sanguinalis [5] = assay: as above; parameters: key: 1-9 levels; higher = more weed remaining vs blank control; details: 150 g a.i./ha, visual inspection 21 days after treatment
# How it was run: as §1
# Humulus scandens [6] = assay: as above; details: 150 g a.i./ha, visual inspection 21 days after treatment
# How it was run: as §1
# Amaranthus retroflexus [7] = assay: Herbicidal activity test for indoor post-emergence spraying on stems and leaves; parameters: key: grade level by weed remaining vs blank control, e.g. 5 = 10.1-15%; details: 150 g a.i./ha, visual inspection 21 days after treatment
# How it was run: (§2)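 Post-emergence stem and leaf spray in an indoor test following NY/T 1155.4-2006, with weeds sown and grown in a greenhouse. Effect scored visually 21 days after treatment as graded levels, each level set by the percentage of weed remaining relative to the blank control area.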
# Barnyard grass [8] = assay: as above; parameters: key: grade level by weed remaining vs blank control, e.g. 5 = 10.1-15%; details: 150 g a.i./ha, visual inspection 21 days after treatment
# How it was run: as §2
# Digitaria sanguinalis [9] = assay: as above; parameters: key: grade level by weed remaining vs blank control, e.g. 5 = 10.1-15%; details: 150 g a.i./ha, visual inspection 21 days after treatment
# How it was run: as §2
# Humulus scandens [10] = assay: as above; parameters: key: grade level by weed remaining vs blank control, e.g. 5 = 10.1-15%; details: 150 g a.i./ha, visual inspection 21 days after treatment
# How it was run: as §2
# Piemarker [11] = assay: as above; parameters: key: grade level by weed remaining vs blank control, e.g. 5 = 10.1-15%; details: 150 g a.i./ha, visual inspection 21 days after treatment
# How it was run: as §2
# green bristlegrass [12] = assay: as above; parameters: key: grade level by weed remaining vs blank control, e.g. 5 = 10.1-15%; details: 150 g a.i./ha, visual inspection 21 days after treatment
# How it was run: as §2
# Broadleaf weed = assay: Post-emergence herbicidal activity test in a paddy field; parameters: key: level scale; higher level = more weed left vs blank control; details: 150 g a.i./ha (penoxsulam control 250 g(a.i.)/h)
# How it was run: (§3)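 Efficacy was visually estimated 15 and 30 days after spraying, grading weed coverage relative to an untreated neighbouring plot (level 2 = 0 to 2.5%, level 9 = 67.6 to 100%). Treatments were 150 g(a.i.)/ha from 10% emulsifiable concentrates applied at the 4-5 leaf rice stage, four repeats of 50 m^2 each.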
# Cyperaceae = assay: as above; parameters: key: level scale; higher level = more weed left vs blank control; details: 150 g a.i./ha (penoxsulam control 250 g(a.i.)/h)
# How it was run: as §3
# Gramineae = assay: as above; parameters: key: level scale; higher level = more weed left vs blank control; details: 150 g a.i./ha (penoxsulam control 250 g(a.i.)/h)
# How it was run: as §3
# Acalypha australis = assay: Field test for weed control in a corn field; details: 150 g a.i./ha, after treatment
# How it was run: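 Post-emergence field trial in a corn field following GB/T 17980.42-2000. Test compounds were formulated as 10% emulsifiable concentrates, diluted in water, and sprayed at 150 g(a.i.)/ha when corn had 2 to 5 leaves, with 4 replicates on 20 m^2 plots. Mesotrione 25% oil dispersion served as the control agent. Weed control was scored on a 1-9 scale.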
# Amaranthus retroflexus [13] = assay: Field test for weed control in a corn field; details: 150 g a.i./ha, 30 days after treatment
# How it was run: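 Field efficacy trial in a corn field following GB/T 17980.42-2000. Test compounds were formulated as 10% emulsifiable concentrates, diluted in water and sprayed post-emergence when corn had 2 to 5 leaves. Each treatment covered 20 m^2 with 4 replicates. A 25% mesotrione oil dispersion served as control. Damage to Amaranthus retroflexus was rated on a 1-9 scale against untreated blank plots.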
# Barnyard grass [14] = assay: Field test for weed control in a corn field; details: 150 g a.i./ha, 30 days after treatment
# How it was run: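 Corn-field efficacy trial following GB/T 17980.42-2000. Test compounds were formulated as 10% emulsifiable concentrates, diluted in water and sprayed post-emergence at 150 g(a.i.)/ha when corn had 2 to 5 leaves. Each treatment was replicated 4 times on 20 m^2 plots. Barnyard grass control was rated on a 1-9 damage scale.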
# Chenopodium album = assay: Field test for weed control in a corn field; details: 150 g a.i./ha, after treatment
# How it was run: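 A corn-field efficacy trial following GB/T 17980.42-2000 tested post-emergence control of Chenopodium album. Test compounds formulated as 10% emulsifiable concentrates were diluted in water and sprayed at 150 g(a.i.)/ha when the corn had 2 leaves to 5 leaves, on 20 m^2 plots with 4 replicates. Herbicidal activity was rated on a 1-9 scale by damage symptoms and severity.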
# Convolvulus arvensis = assay: Field test for weed control in a corn field; details: 150 g a.i./ha, after treatment
# How it was run: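 Field trial of weed control against Convolvulus arvensis in corn, run following GB/T 17980.42-2000. Test agents were formulated as 10% emulsifiable concentrates and sprayed in water at 150 g(a.i.)/ha when corn plants had 2 to 5 leaves. Each treatment was replicated 4 times on 20 m^2 plots, and 25% mesotrione oil dispersion served as the control agent.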
# Digitaria sanguinalis [15] = assay: Field test for weed control in a corn field; details: 150 g a.i./ha, after treatment
# How it was run: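 Field trial in a corn field following GB/T 17980.42-2000. Test compounds were formulated as 10% emulsifiable concentrates, diluted in water and sprayed post-emergence at 150 g(a.i.)/ha when corn had 2 to 5 leaves, with 4 replicates on 20 m^2 plots. Control of Digitaria sanguinalis was scored on a 1-9 scale based on weed damage relative to the untreated blank area.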
# Portulaca oleracea = assay: Field test for weed control in a corn field; details: 150 g a.i./ha, after treatment
# How it was run: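 Field efficacy trial in corn following GB/T 17980.42-2000. Test compounds were prepared as 10% emulsifiable concentrates, diluted in water, and sprayed at 150 g(a.i.)/ha when corn had 2 to 5 leaves after sowing. Plots were 20 m^2 with 4 replicates per treatment. Herbicidal activity was scored on a 1-9 scale from weed damage symptoms and severity.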
# Solanum nigrum = assay: Field test for weed control in a corn field; details: 150 g a.i./ha, 30 days after treatment
# How it was run: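 Post-emergence weed control was tested in a corn field following GB/T 17980.42-2000. Compounds were made into 10% emulsifiable concentrates, diluted in water and sprayed at 150 g(a.i.)/ha when corn had 2 to 5 leaves after sowing, in 20 m^2 plots with 4 replicates. Effects on Solanum nigrum were graded on a 1-9 scale relative to the blank control area.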
# goosegrass = assay: Field test for weed control in a corn field; details: 150 g a.i./ha, after treatment
# How it was run: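 Weed control efficacy against goosegrass was tested in a corn field following GB/T 17980.42-2000. Compounds formulated as 10% emulsifiable concentrates were diluted in water and sprayed post-emergence at 150 g(a.i.)/ha when corn had 2 to 5 leaves, with 4 replicates of 20 m^2 plots. Herbicidal activity was rated on a 1-9 scale by damage symptoms and severity.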
# green bristlegrass [16] = assay: Field test for weed control in a corn field; details: 150 g a.i./ha, after treatment
# How it was run: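 Post-emergence weed control was tested in a corn field following GB/T 17980.42-2000. When the corn had 2 leaves to 5 leaves after sowing, 10% emulsifiable concentrates diluted in water were sprayed at 150 g(a.i.)/ha on 20 m^2 plots, four replicates per treatment. Effects on green bristlegrass were scored on a 1-9 damage scale relative to the blank control area.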
# nutgrass flatsedge = assay: Field test for weed control in a corn field; details: 150 g a.i./ha, after treatment
# How it was run: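 A corn field efficacy trial following GB/T 17980.42-2000 assessed post-emergence control of nutgrass flatsedge. Test compounds were formulated as 10% emulsifiable concentrates, diluted in water, and sprayed at 150 g(a.i.)/ha when the corn had 2 to 5 leaves. Each treatment had 4 replicates on 20 m^2 plots. Herbicidal activity was graded on a 1-9 scale by damage symptoms and severity.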
Structure (SMILES),Herbicidal Activity Barnyard grass (Barnyard grass [1]),Herbicidal Activity Piemarker (Piemarker [2]),Herbicidal Activity Green bristlegrass (green bristlegrass [3]),Herbicidal Activity Amaranthus retroflexus (Amaranthus retroflexus [4]),Herbicidal Activity Digitaria sanguinalis (Digitaria sanguinalis [5]),Herbicidal Activity Humulus scandens (Humulus scandens [6]),Herbicidal Activity Amaranthus retroflexus (Amaranthus retroflexus [7]),Herbicidal Activity Barnyard grass (Barnyard grass [8]),Herbicidal Activity Digitaria sanguinalis (Digitaria sanguinalis [9]),Herbicidal Activity Humulus scandens (Humulus scandens [10]),Herbicidal Activity Piemarker (Piemarker [11]),Herbicidal Activity Green bristlegrass (green bristlegrass [12]),Herbicidal activity 15 days after treatment Broadleaf weed (Broadleaf weed),Herbicidal activity 30 days after treatment Broadleaf weed (Broadleaf weed),Herbicidal activity 15 days after treatment Cyperaceae (Cyperaceae),Herbicidal activity 30 days after treatment Cyperaceae (Cyperaceae),Herbicidal activity 15 days after treatment Gramineae (Gramineae),Herbicidal activity 30 days after treatment Gramineae (Gramineae),"Post-emergence weed control effect, Acalypha australis (Acalypha australis)","Post-emergence weed control effect, Amaranthus retroflexus (Amaranthus retroflexus [13])",other results
COc1ccc(OC)c(C(=O)NCc2cccc(C)c2)c1 [Compound A35],1,1,1,1,2 (equivalent to 0 to 2.5% of the weed in the blank control area),2 (equivalent to 0 to 2.5% of the weed in the blank control area),1,1,1,1,1,1,1,2 (equivalent to 0 to 2.5% of the weed in the blank control area),1,2 (equivalent to 0 to 2.5% of the weed in the blank control area),2 (equivalent to 0 to 2.5% of the weed in the blank control area),1,2 (equivalent to 0 to 2.5% of the weed in the blank control area),1,"Post-emergence weed control effect, Barnyard grass (Barnyard grass [14]): 1; Post-emergence weed control effect, Chenopodium album (Chenopodium album): 1; Post-emergence weed control effect, Convolvulus arvensis (Convolvulus arvensis): 2 (equivalent to 0 to 2.5% of the weed in the blank control area); Post-emergence weed control effect, Digitaria sanguinalis (Digitaria sanguinalis [15]): 2 (equivalent to 0 to 2.5% of the weed in the blank control area); Post-emergence weed control effect, Portulaca oleracea (Portulaca oleracea): 1; Post-emergence weed control effect, Solanum nigrum (Solanum nigrum): 2 (equivalent to 0 to 2.5% of the weed in the blank control area); Post-emergence weed control effect, Goose grass (goosegrass): 2 (equivalent to 0 to 2.5% of the weed in the blank control area); Post-emergence weed control effect, Green bristlegrass (green bristlegrass [16]): 2 (equivalent to 0 to 2.5% of the weed in the blank control area); Post-emergence weed control effect, Nutgrass flatsedge (nutgrass flatsedge): 2 (equivalent to 0 to 2.5% of the weed in the blank control area)"
"COc1ccccc1C(=O)NCc1cc(F)cc(F)c1 [Compound A03, N-(3,5 difluorobenzyl)-2-methoxybenzamide]",1,1,1,1,2 (equivalent to 0 to 2.5% of the weed in the blank control area),2 (equivalent to 0 to 2.5% of the weed in the blank control area),1,1,2 (equivalent to 0 to 2.5% of the weed in the blank control area),1,1,1,1,2 (equivalent to 0 to 2.5% of the weed in the blank control area),2 (equivalent to 0 to 2.5% of the weed in the blank control area),1,2 (equivalent to 0 to 2.5% of the weed in the blank control area),1,2 (equivalent to 0 to 2.5% of the weed in the blank control area),1,"Post-emergence weed control effect, Barnyard grass (Barnyard grass [14]): 1; Post-emergence weed control effect, Chenopodium album (Chenopodium album): 1; Post-emergence weed control effect, Convolvulus arvensis (Convolvulus arvensis): 1; Post-emergence weed control effect, Digitaria sanguinalis (Digitaria sanguinalis [15]): 1; Post-emergence weed control effect, Portulaca oleracea (Portulaca oleracea): 1; Post-emergence weed control effect, Solanum nigrum (Solanum nigrum): 1; Post-emergence weed control effect, Goose grass (goosegrass): 2 (equivalent to 0 to 2.5% of the weed in the blank control area); Post-emergence weed control effect, Green bristlegrass (green bristlegrass [16]): 2 (equivalent to 0 to 2.5% of the weed in the blank control area); Post-emergence weed control effect, Nutgrass flatsedge (nutgrass flatsedge): 2 (equivalent to 0 to 2.5% of the weed in the blank control area)"
